Experimental data as given in patent publication US8653031B2, “Process for the preparation of compositions of AT1 receptor antagonist and Angiotensin—(1-7)” (Universidade Federal de Minas Gerais, priority 2006, dated 2014).

Experiments:
[1] = tested on: spontaneously hypertensive rats (SHR); assay: Antihypertensive test: blood pressure recorded by telemetry in SHR after oral administration; type: in vivo, rat
Protocol: Male, spontaneously hypertensive rats (SHR) were used, with initial age of 14-16 weeks, from the Centro de Bioterismo (CEBIO, Federal University of Minas Gerais). The animals were kept with free access to food and water and were submitted to a light-dark cycle (12 hours each).
After anesthesia with tribromoethanol (0.25 g/Kg body weight), trichotomy of the abdominal region and local asepsis was made. After adjustment of the surgical field, a median incision of 4 to 6 cm was performed in the abdomen with the implantation of the transducer catheter in the abdominal aorta. After surgery, a veterinary pentabiotic was administered (0.1 ml) via intramuscular route (i.m.). […]
Records of the cardiovascular parameters, average blood pressure and heart rate were obtained by a telemetry data acquisition system (Data Science International). This monitoring system consists of 4 basic elements: (A) a sensor catheter (model—TA11PA-C40) which was inserted into the animal's abdominal aorta for collection, processing and transmission of pulsatile blood pressure; (B) a receiving signal plate (RPC-1); (C) a muliplexor that received the signal from several receiving plates and sent them to (D) the data acquisition system itself, which collected, stored and analyzed the data by means of a specific software, ART-Gold v. […]
The acute cardiovascular effects of administering the LA compound were determined. […]

ACE = ACE (Homo sapiens, UniProt P12821); details: read-out: IC50 for ACE inhibition; cited from earlier work
Chain of ACE (P12821 30-1306, species assumed): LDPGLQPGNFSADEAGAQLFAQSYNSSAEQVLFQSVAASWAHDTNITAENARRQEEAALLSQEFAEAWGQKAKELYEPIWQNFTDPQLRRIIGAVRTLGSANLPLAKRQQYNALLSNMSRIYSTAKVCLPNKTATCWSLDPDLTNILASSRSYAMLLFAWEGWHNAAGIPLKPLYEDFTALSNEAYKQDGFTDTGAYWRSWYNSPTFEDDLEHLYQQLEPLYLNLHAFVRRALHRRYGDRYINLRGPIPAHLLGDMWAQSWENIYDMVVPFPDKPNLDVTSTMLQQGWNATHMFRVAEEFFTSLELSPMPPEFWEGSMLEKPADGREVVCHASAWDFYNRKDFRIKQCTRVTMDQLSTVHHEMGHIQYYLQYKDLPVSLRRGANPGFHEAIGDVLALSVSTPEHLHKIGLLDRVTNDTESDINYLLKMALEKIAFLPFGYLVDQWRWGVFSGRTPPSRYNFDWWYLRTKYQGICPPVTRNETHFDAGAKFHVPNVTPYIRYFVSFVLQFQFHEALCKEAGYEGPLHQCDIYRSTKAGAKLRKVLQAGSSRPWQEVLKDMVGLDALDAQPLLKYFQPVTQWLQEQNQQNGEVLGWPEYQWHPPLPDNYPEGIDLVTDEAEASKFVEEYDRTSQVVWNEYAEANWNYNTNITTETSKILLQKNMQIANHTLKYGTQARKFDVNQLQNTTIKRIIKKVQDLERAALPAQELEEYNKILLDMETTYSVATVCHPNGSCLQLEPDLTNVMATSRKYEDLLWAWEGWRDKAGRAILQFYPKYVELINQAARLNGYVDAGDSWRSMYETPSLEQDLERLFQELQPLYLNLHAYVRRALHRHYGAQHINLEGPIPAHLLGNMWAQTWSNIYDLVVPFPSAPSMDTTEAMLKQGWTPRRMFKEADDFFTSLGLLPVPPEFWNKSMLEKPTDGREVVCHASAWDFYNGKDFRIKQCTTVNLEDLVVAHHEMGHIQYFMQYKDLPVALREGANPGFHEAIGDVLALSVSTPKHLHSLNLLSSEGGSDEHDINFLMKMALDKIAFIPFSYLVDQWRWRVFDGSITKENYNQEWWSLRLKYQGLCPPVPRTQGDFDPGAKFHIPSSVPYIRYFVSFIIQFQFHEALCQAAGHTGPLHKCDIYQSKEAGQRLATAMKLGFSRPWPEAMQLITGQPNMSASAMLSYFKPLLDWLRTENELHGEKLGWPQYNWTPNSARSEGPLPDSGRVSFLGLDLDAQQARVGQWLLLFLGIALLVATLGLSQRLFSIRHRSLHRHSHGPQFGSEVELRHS

Molecule	reduction in the average blood pressure ([1]; n=2, single oral dose equivalent to 1 mg Kg/day of losartan, after 5 hours (maximum for test compound)) [mmHg]	duration of the blood pressure lowering effect ([1]; single oral dose equivalent to 1 mg Kg/day of losartan) [h]	IC50 (ACE) [nM]
CCCCc1nc(Cl)c(CO)n1Cc1ccc(-c2ccccc2-c2nn[nH]n2)cc1 [losartan]	−10	12	
DRVYIHP [Ang-(1-7), Asp-Arg-Val-Tyr-Ile-His-Pro, heptapeptide of the renin-angiotensin system]			~1000
